{
  "source": "PubChem BioAssay (NCI)",
  "test_in_all_cases": "inhibition of tumour cell growth, NCI panel, 48 h",
  "key": {"[1]": {"test_system": "MDA-MB-231 breast"}, "[2]": {"test_system": "SF-539 CNS"}, "[3]": {"test_system": "OVCAR-5 ovarian"}, "[4]": {"test_system": "A549 NSCLC"}, "[5]": {"test_system": "IGROV1 ovarian"}, "[6]": {"test_system": "UACC-62 melanoma"}, "[7]": {"test_system": "OVCAR-3 ovarian"}, "[8]": {"test_system": "SK-MEL-28 melanoma"}, "[9]": {"test_system": "MDA-MB-435"}, "[10]": {"test_system": "MALME-3M melanoma"}},
  "note": "Several values for one entry are separate records, joined by “and”; a condition that tells them apart may be missing. Equal values may be shown once.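 96-well plates; 48 h exposure; 5 concentrations. Endpoints by linear interpolation between flanking doses. Not reached: highest tested concentration assigned. GI50 = concentration required for 50% inhibition of growth. At the TGI there is no net growth.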",
  "data": [
    {"compound": "CCc1ncc(CO)n1Cc1cccc2ccccc12", "values": [
      {"measurement": "TGI", "setting": "[1]", "result": "> 100", "unit": "µM"},
      {"measurement": "TGI", "setting": "[2]", "result": "> 100", "unit": "µM"},
      {"measurement": "TGI", "setting": "[3]", "result": "> 100", "unit": "µM"},
      {"measurement": "TGI", "setting": "[4]", "result": "> 100", "unit": "µM"},
      {"measurement": "TGI", "setting": "[5]", "result": "> 100", "unit": "µM"},
      {"measurement": "TGI", "setting": "[6]", "result": "> 100", "unit": "µM"},
      {"measurement": "TGI", "setting": "[7]", "result": "> 100", "unit": "µM"},
      {"measurement": "TGI", "setting": "[8]", "result": "> 100", "unit": "µM"},
      {"measurement": "TGI", "setting": "[9]", "result": "> 100", "unit": "µM"},
      {"measurement": "TGI", "setting": "[10]", "result": "> 100", "unit": "µM"}
    ]},
    {"compound": "Cc1cnc(-c2ccc(-c3ccc(NC(=O)Nc4c(F)cc(F)cc4F)cc3F)c3c2C(=O)NC3)[nH]1", "values": [
      {"measurement": "GI50", "setting": "[1]", "result": "1.59 µM and 2.51 µM"},
      {"measurement": "TGI", "setting": "[1]", "result": "8.16 µM and 11.3 µM"},
      {"measurement": "GI50", "setting": "[2]", "result": 0.709, "unit": "µM"},
      {"measurement": "TGI", "setting": "[2]", "result": 18.9, "unit": "µM"},
      {"measurement": "GI50", "setting": "[3]", "result": "1.61 µM and 1.56 µM"},
      {"measurement": "TGI", "setting": "[3]", "result": "13.2 µM and 12.6 µM"},
      {"measurement": "GI50", "setting": "[4]", "result": "1.29 µM and 1.11 µM"},
      {"measurement": "TGI", "setting": "[4]", "result": "8.23 µM and 10.8 µM"},
      {"measurement": "GI50", "setting": "[5]", "result": "0.824 µM and 1.31 µM"},
      {"measurement": "TGI", "setting": "[5]", "result": "6.63 µM and 18.8 µM"},
      {"measurement": "GI50", "setting": "[6]", "result": "0.14 µM and 0.223 µM"},
      {"measurement": "TGI", "setting": "[6]", "result": "2.1 µM and 2.39 µM"},
      {"measurement": "GI50", "setting": "[7]", "result": "1.38 µM and 1.51 µM"},
      {"measurement": "TGI", "setting": "[7]", "result": "2.82 µM and 3.02 µM"},
      {"measurement": "GI50", "setting": "[8]", "result": "1.16 µM and 0.642 µM"},
      {"measurement": "TGI", "setting": "[8]", "result": "9.69 µM and 5.48 µM"},
      {"measurement": "GI50", "setting": "[9]", "result": 0.483, "unit": "µM"},
      {"measurement": "TGI", "setting": "[9]", "result": 4.29, "unit": "µM"},
      {"measurement": "GI50", "setting": "[10]", "result": "0.124 µM and 0.106 µM"},
      {"measurement": "TGI", "setting": "[10]", "result": "2.37 µM and 2.8 µM"}
    ]},
    {"compound": "C=CC(=O)N1CCC[C@@H](n2nc(-c3ccc(Oc4ccccc4)cc3)c3c(N)ncnc32)C1", "values": [
      {"measurement": "GI50", "setting": "[1]", "result": 9.69, "unit": "µM"},
      {"measurement": "TGI", "setting": "[1]", "result": "> 10", "unit": "µM"},
      {"measurement": "GI50", "setting": "[2]", "result": "> 6.36", "unit": "µM"},
      {"measurement": "TGI", "setting": "[2]", "result": "> 10", "unit": "µM"},
      {"measurement": "GI50", "setting": "[3]", "result": "> 10", "unit": "µM"},
      {"measurement": "TGI", "setting": "[3]", "result": "> 10", "unit": "µM"},
      {"measurement": "GI50", "setting": "[4]", "result": "> 10", "unit": "µM"},
      {"measurement": "TGI", "setting": "[4]", "result": "> 10", "unit": "µM"},
      {"measurement": "GI50", "setting": "[5]", "result": 0.418, "unit": "µM"},
      {"measurement": "TGI", "setting": "[5]", "result": "> 10", "unit": "µM"},
      {"measurement": "GI50", "setting": "[6]", "result": "> 4.22", "unit": "µM"},
      {"measurement": "TGI", "setting": "[6]", "result": "> 10", "unit": "µM"},
      {"measurement": "GI50", "setting": "[7]", "result": "> 6.8", "unit": "µM"},
      {"measurement": "TGI", "setting": "[7]", "result": "> 10", "unit": "µM"},
      {"measurement": "GI50", "setting": "[8]", "result": "> 10", "unit": "µM"},
      {"measurement": "TGI", "setting": "[8]", "result": "> 10", "unit": "µM"},
      {"measurement": "GI50", "setting": "[9]", "result": "> 10", "unit": "µM"},
      {"measurement": "TGI", "setting": "[9]", "result": "> 10", "unit": "µM"},
      {"measurement": "GI50", "setting": "[10]", "result": "> 10", "unit": "µM"},
      {"measurement": "TGI", "setting": "[10]", "result": "> 10", "unit": "µM"}
    ]},
    {"compound": "COC(=O)c1c2c(c(C)[n+]([O-])c1C)C(=O)C(NCc1ccc(O)cc1)=CC2=O", "values": [
      {"measurement": "GI50", "setting": "[1]", "result": 1.38, "unit": "µM"},
      {"measurement": "TGI", "setting": "[1]", "result": 4.34, "unit": "µM"},
      {"measurement": "GI50", "setting": "[2]", "result": 1.68, "unit": "µM"},
      {"measurement": "TGI", "setting": "[2]", "result": 3.07, "unit": "µM"},
      {"measurement": "GI50", "setting": "[3]", "result": 1.77, "unit": "µM"},
      {"measurement": "TGI", "setting": "[3]", "result": 3.36, "unit": "µM"},
      {"measurement": "GI50", "setting": "[4]", "result": 1.93, "unit": "µM"},
      {"measurement": "TGI", "setting": "[4]", "result": 4.6, "unit": "µM"},
      {"measurement": "GI50", "setting": "[5]", "result": 1.59, "unit": "µM"},
      {"measurement": "TGI", "setting": "[5]", "result": 3.78, "unit": "µM"},
      {"measurement": "GI50", "setting": "[6]", "result": 1.36, "unit": "µM"},
      {"measurement": "TGI", "setting": "[6]", "result": 2.97, "unit": "µM"},
      {"measurement": "GI50", "setting": "[7]", "result": 0.266, "unit": "µM"},
      {"measurement": "TGI", "setting": "[7]", "result": 0.82, "unit": "µM"},
      {"measurement": "GI50", "setting": "[8]", "result": 2.26, "unit": "µM"},
      {"measurement": "TGI", "setting": "[8]", "result": 4.36, "unit": "µM"},
      {"measurement": "GI50", "setting": "[9]", "result": 1.68, "unit": "µM"},
      {"measurement": "TGI", "setting": "[9]", "result": 3.19, "unit": "µM"},
      {"measurement": "GI50", "setting": "[10]", "result": 0.256, "unit": "µM"},
      {"measurement": "TGI", "setting": "[10]", "result": 0.93, "unit": "µM"}
    ]},
    {"compound": "Cn1c(=O)c(Oc2ccc(F)cc2F)cc2cnc(NCC(C)(C)O)nc21", "values": [
      {"measurement": "GI50", "setting": "[1]", "result": "> 25", "unit": "µM"},
      {"measurement": "TGI", "setting": "[1]", "result": "> 25", "unit": "µM"},
      {"measurement": "GI50", "setting": "[2]", "result": "> 25", "unit": "µM"},
      {"measurement": "TGI", "setting": "[2]", "result": "> 25", "unit": "µM"},
      {"measurement": "GI50", "setting": "[3]", "result": "> 25", "unit": "µM"},
      {"measurement": "TGI", "setting": "[3]", "result": "> 25", "unit": "µM"},
      {"measurement": "GI50", "setting": "[4]", "result": "> 25", "unit": "µM"},
      {"measurement": "TGI", "setting": "[4]", "result": "> 25", "unit": "µM"},
      {"measurement": "GI50", "setting": "[5]", "result": "> 25", "unit": "µM"},
      {"measurement": "TGI", "setting": "[5]", "result": "> 25", "unit": "µM"},
      {"measurement": "GI50", "setting": "[6]", "result": "> 25", "unit": "µM"},
      {"measurement": "TGI", "setting": "[6]", "result": "> 25", "unit": "µM"},
      {"measurement": "GI50", "setting": "[7]", "result": "> 25", "unit": "µM"},
      {"measurement": "TGI", "setting": "[7]", "result": "> 25", "unit": "µM"},
      {"measurement": "GI50", "setting": "[8]", "result": "> 25", "unit": "µM"},
      {"measurement": "TGI", "setting": "[8]", "result": "> 25", "unit": "µM"},
      {"measurement": "GI50", "setting": "[9]", "result": "> 25", "unit": "µM"},
      {"measurement": "TGI", "setting": "[9]", "result": "> 25", "unit": "µM"},
      {"measurement": "GI50", "setting": "[10]", "result": "> 25", "unit": "µM"},
      {"measurement": "TGI", "setting": "[10]", "result": "> 25", "unit": "µM"}
    ]},
    {"compound": "CN(C)C1CN(C(=O)c2cc(-c3ccc4ncnc(N5CCc6cc(F)c(Cl)cc65)c4c3)cnc2N)C1", "values": [
      {"measurement": "GI50", "setting": "[1]", "result": 0.931, "unit": "µM"},
      {"measurement": "TGI", "setting": "[1]", "result": "> 100", "unit": "µM"},
      {"measurement": "GI50", "setting": "[2]", "result": 0.827, "unit": "µM"},
      {"measurement": "TGI", "setting": "[2]", "result": 5.07, "unit": "µM"},
      {"measurement": "GI50", "setting": "[3]", "result": 0.743, "unit": "µM"},
      {"measurement": "TGI", "setting": "[3]", "result": "> 100", "unit": "µM"},
      {"measurement": "GI50", "setting": "[4]", "result": 0.486, "unit": "µM"},
      {"measurement": "TGI", "setting": "[4]", "result": "> 100", "unit": "µM"},
      {"measurement": "GI50", "setting": "[5]", "result": 0.223, "unit": "µM"},
      {"measurement": "TGI", "setting": "[5]", "result": 1.23, "unit": "µM"},
      {"measurement": "GI50", "setting": "[6]", "result": 0.43, "unit": "µM"},
      {"measurement": "TGI", "setting": "[6]", "result": 2.16, "unit": "µM"},
      {"measurement": "GI50", "setting": "[7]", "result": 0.585, "unit": "µM"},
      {"measurement": "TGI", "setting": "[7]", "result": 5.2, "unit": "µM"},
      {"measurement": "GI50", "setting": "[8]", "result": 0.869, "unit": "µM"},
      {"measurement": "TGI", "setting": "[8]", "result": "> 100", "unit": "µM"},
      {"measurement": "GI50", "setting": "[9]", "result": 0.687, "unit": "µM"},
      {"measurement": "GI50", "setting": "[10]", "result": 0.453, "unit": "µM"},
      {"measurement": "TGI", "setting": "[10]", "result": 3.66, "unit": "µM"}
    ]}
  ]
}
